Measured values: US9346822B2, “Thienopyrimidine compounds and use thereof” (TAKEDA PHARMACEUTICAL COMPANY LIMITED, priority 2003, dated 2016)

Experiments:
human GnRH receptor = human GnRH receptor (Homo sapiens (Human), UniProt P30968); assay: 125I-leuprorelin binding inhibition, CHO cell membrane fraction containing human GnRH receptor; settings: human GnRH receptor expressed in CHO cell membrane, 25° C., 60 minutes, from Hill plot
Experimental: To a tube containing 10 μl of a 3×10^−4 M aqueous solution of leuprorelin and 10 μl of 0.01 mg/ml lactoperoxidase was added 10 μl (37 MBq) of a solution of Na^125I. After stirring, 10 μl of 0.001% H2O2 was added, and a reaction was carried out at room temperature for 20 minutes. By adding 700 μl of a 0.05% TFA solution, the reaction was stopped, followed by purification by reversed-phase HPLC. The HPLC conditions used are shown below. ^125I-leuprorelin was eluted at a retention time of 26 to 27 minutes.
Human GnRH receptor-expressing CHO cells (10^9 cells) were suspended in phosphate-buffered saline supplemented with 5 mM EDTA (PBS-EDTA) and centrifuged at 100×g for 5 minutes. […]
The monkey and human membrane fractions prepared in the above (2) and (3) were diluted with the assay buffer to yield a 200 µg/ml dilution, each of which was then dispensed at 188 μl per tube. […] To determine maximum binding quantity, a reaction mixture containing 2 μl of 60% DMSO and 10 μl of 38 nM ^125I-leuprorelin was prepared. […]
Where the membrane fraction of the CHO with monkey and human GnRH receptors expressed was used, the reaction was carried out at 25° C. for 60 minutes. […] After this filtration, the radioactivity of ^125I-leuprorelin remaining on the filter paper was measured with a γ-counter. […]

human GnRH receptor, sequence (P30968 whole entry): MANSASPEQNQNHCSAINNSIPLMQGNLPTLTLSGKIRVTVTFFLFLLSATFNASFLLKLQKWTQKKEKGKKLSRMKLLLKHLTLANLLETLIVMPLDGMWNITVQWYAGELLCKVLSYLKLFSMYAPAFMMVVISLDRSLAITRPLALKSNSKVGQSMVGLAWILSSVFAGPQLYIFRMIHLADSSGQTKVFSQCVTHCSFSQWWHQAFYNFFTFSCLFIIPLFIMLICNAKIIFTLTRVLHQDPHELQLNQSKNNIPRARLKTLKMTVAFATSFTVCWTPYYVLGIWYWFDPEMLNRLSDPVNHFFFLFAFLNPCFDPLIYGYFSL

Work on `CONC(=O)Nc1ccc(-c2sc3c(c2CN[C@H](C)c2ccccc2)c(=O)n(-c2ccccc2)c(=O)n3Cc2c(F)cccc2F)cc1` (hydrate or solvate) [Reference Example 28, N-(4-(5-(((1R)-1-phenylethylamino)methyl)-1-(2,6-difluorobenzyl)-1,2,3,4-tetrahydro-2,4-dioxo-3-phenylthieno[2,3-d]pyrimidin-6-yl)phenyl)-N′-methoxyurea] yielded a melting point of 180 to 182 °C.
Compound `COCCN(C)Cc1c(-c2ccc(NC(=O)NOC)cc2)sc2c1c(=O)n(-c1ccccn1)c(=O)n2Cc1c(F)cccc1F` [Ex. Compd. No. 40, N-(4-(1-(2,6-difluorobenzyl)-5-(((2-methoxyethyl)(methyl)amino)methyl)-2,4-dioxo-3-(2-pyridinyl)-1,2,3,4-tetrahydrothieno[2,3-d]pyrimidin-6-yl)phenyl)-N′-methoxyurea] has an IC50 (human GnRH receptor) of 0.0002 µM.
Work on `CCOCCN(C)Cc1c(-c2ccc(NC(=O)NOC)cc2)sc2c1c(=O)n(-c1ccccn1)c(=O)n2Cc1c(F)cccc1F` [Ex. Compd. No. 41, N-(4-(1-(2,6-difluorobenzyl)-5-(((2-ethoxyethyl)(methyl)amino)methyl)-2,4-dioxo-3-(2-pyridinyl)-1,2,3,4-tetrahydrothieno[2,3-d]pyrimidin-6-yl)phenyl)-N′-methoxyurea] yielded an IC50 (human GnRH receptor) of 0.0001 µM.
With `CONC(=O)Nc1ccc(-c2sc3c(c2CN[C@@H](C)c2ccccc2)c(=O)n(-c2ccccc2)c(=O)n3Cc2c(F)cccc2F)cc1` [Reference Example 29, N-(4-(5-(((1S)-1-phenylethylamino)methyl)-1-(2,6-difluorobenzyl)-1,2,3,4-tetrahydro-2,4-dioxo-3-phenylthieno[2,3-d]pyrimidin-6-yl)phenyl)-N′-methoxyurea] the melting point was 182 to 185 °C.
In the case of `COCC(c1ccccc1)N(C)Cc1c(-c2ccc(NC(=O)NOC)cc2)sc2c1c(=O)n(-c1ccccc1)c(=O)n2Cc1c(F)cccc1F` (centres unmarked) [Reference Example 32, N-(4-(1-(2,6-difluorobenzyl)-5-((2-methoxy-1-phenylethyl(methyl)amino)methyl)-1,2,3,4-tetrahydro-2,4-dioxo-3-phenylthieno[2,3-d]pyrimidin-6-yl)phenyl)-N′-methoxyurea], the melting point is reported as 169 to 172 °C.
Compound `COCC(C)N(C)Cc1c(-c2ccc(NC(=O)NOC)cc2)sc2c1c(=O)n(-c1ccccc1)c(=O)n2Cc1c(F)cccc1F` (centres unmarked) [Reference Example 34, N-(4-(1-(2,6-difluorobenzyl)-5-(((2-methoxy-1-methylethyl)methylamino)methyl)-1,2,3,4-tetrahydro-2,4-dioxo-3-phenylthieno[2,3-d]pyrimidin-6-yl)phenyl)-N′-methoxyurea] has a melting point of 154 to 155 °C.
Compound `CONC(=O)Nc1ccc(-c2sc3c(c2CN(C)[C@H](C)c2ccccc2)c(=O)n(-c2ccccn2)c(=O)n3Cc2c(F)cccc2F)cc1` [Reference Example 38, N-(4-(5-((methyl((1R)-1-phenylethyl)amino)methyl)-1-(2,6-difluorobenzyl)-1,2,3,4-tetrahydro-2,4-dioxo-3-pyridin-2-ylthieno[2,3-d]pyrimidin-6-yl)phenyl)-N′-methoxyurea] has a melting point of 168 to 170 °C.
In the case of `CONC(=O)Nc1ccc(-c2sc3c(c2CN(C)[C@H](C)c2ccccc2)c(=O)n(-c2ccc(F)cn2)c(=O)n3Cc2c(F)cccc2F)cc1` [Reference Example 39, N-(4-(5-((methyl((1R)-1-phenylethyl)amino)methyl)-1-(2,6-difluorobenzyl)-1,2,3,4-tetrahydro-2,4-dioxo-3-(5-fluoropyridin-2-yl)thieno[2,3-d]pyrimidin-6-yl)phenyl)-N′-methoxyurea], the melting point is reported as 128 to 130 °C.
